In the supplement of paper PMC10307832:

What was measured:
Experiment in all cases: relative viability (nuclei count vs DMSO), 5 days (fraction); higher = more cells survive
[1] = compound: CC1(COc2ccc3c(c2)ncn3-c2ccc3cccc(N4CCC(N)CC4)c3n2)COC1 [Crenolanib] + O=C(c1cc(Cc2n[nH]c(=O)c3ccccc23)ccc1F)N1CCN(C(=O)C2CC2)CC1 [Olaparib] (partner 8 µM)
Method in brief: (§1)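 A single step with final 0.05% Triton X-100, 1% formaldehyde and 1 ug/ml Hoechst fixed the cells and stained nuclei 5 days after treatment. Lung cancer cell lines in 1536-well plates had been treated by pin tool the day after seeding with one drug alone or a fixed anchor-drug dose plus five library-drug doses (not always all listed) in √10 steps, and nuclei were counted on 4× images. Relative viability is the ratio of nuclei in treated wells to nuclei in vehicle wells, taken as the median of duplicate plates.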

[2] = compound: CC1(COc2ccc3c(c2)ncn3-c2ccc3cccc(N4CCC(N)CC4)c3n2)COC1 [Crenolanib] + NC(=O)Nc1cc(-c2cccc(F)c2)sc1C(=O)N[C@H]1CCCNC1 [AZD7762] (partner 0.2 µM)
Method in brief: as §1

[3] = compound: O=C1NC(=O)[C@@H](c2cn3c4c(cccc24)CCC3)[C@@H]1c1c[nH]c2ccccc12 [Tivantinib] + COc1cc2c(Oc3ccc(NC(=O)C4(C(=O)Nc5ccc(F)cc5)CC4)cc3F)ccnc2cc1OCCCN1CCOCC1 [Foretinib] (partner 0.25 µM)
Method in brief: as §1

[4] = compound: O=C1NC(=O)[C@@H](c2cn3c4c(cccc24)CCC3)[C@@H]1c1c[nH]c2ccccc12 [Tivantinib] + C[C@@H](Oc1cc(-c2cnn(C3CCNCC3)c2)cnc1N)c1c(Cl)ccc(F)c1Cl [Crizotinib] (partner 1 µM)
Method in brief: as §1

## NCI-H1437
[1]; first compound 0.01 µM
  relative viability: 0.632
[1]; first compound 0.03162 µM
  relative viability: 0.636
[1]; first compound 0.1 µM
  relative viability: 0.621
[1]; first compound 0.3162 µM
  relative viability: 0.647
[1]; first compound 1 µM
  relative viability: 0.591
[2]; first compound 0.01 µM
  relative viability: 1.15
[2]; first compound 0.03162 µM
  relative viability: 1.18
[2]; first compound 0.1 µM
  relative viability: 1.07
[2]; first compound 0.3162 µM
  relative viability: 1.19
[2]; first compound 1 µM
  relative viability: 1.14
[3]; first compound 0.01 µM
  relative viability: 1.26
[3]; first compound 0.03162 µM
  relative viability: 1.34
[3]; first compound 0.1 µM
  relative viability: 1.3
[3]; first compound 0.3162 µM
  relative viability: 1.25
[4]; first compound 0.01 µM
  relative viability: 0.875
[4]; first compound 0.03162 µM
  relative viability: 1.07
[4]; first compound 0.1 µM
  relative viability: 0.977
[4]; first compound 0.3162 µM
  relative viability: 0.91

## NCI-H1651
[1]; first compound 0.01 µM
  relative viability: 0.177
[1]; first compound 0.03162 µM
  relative viability: 0.186
[1]; first compound 0.1 µM
  relative viability: 0.198
[1]; first compound 0.3162 µM
  relative viability: 0.171
[1]; first compound 1 µM
  relative viability: 0.166
[2]; first compound 0.01 µM
  relative viability: 0.49
[2]; first compound 0.03162 µM
  relative viability: 0.399
[2]; first compound 0.1 µM
  relative viability: 0.434
[2]; first compound 0.3162 µM
  relative viability: 0.472
[2]; first compound 1 µM
  relative viability: 0.558
[3]; first compound 0.01 µM
  relative viability: 0.931
[3]; first compound 0.03162 µM
  relative viability: 0.813
[3]; first compound 0.1 µM
  relative viability: 0.769
[3]; first compound 0.3162 µM
  relative viability: 0.691
[4]; first compound 0.01 µM
  relative viability: 0.893
[4]; first compound 0.03162 µM
  relative viability: 0.828
[4]; first compound 0.1 µM
  relative viability: 0.867
[4]; first compound 0.3162 µM
  relative viability: 0.762

## NCI-H1666
[1]; first compound 0.01 µM
  relative viability: 0.764
[1]; first compound 0.03162 µM
  relative viability: 0.717
[1]; first compound 0.1 µM
  relative viability: 0.723
[1]; first compound 0.3162 µM
  relative viability: 0.692
[1]; first compound 1 µM
  relative viability: 0.749
[2]; first compound 0.01 µM
  relative viability: 0.928
[2]; first compound 0.03162 µM
  relative viability: 0.831
[2]; first compound 0.1 µM
  relative viability: 0.761
[2]; first compound 0.3162 µM
  relative viability: 0.905
[2]; first compound 1 µM
  relative viability: 0.889
[3]; first compound 0.01 µM
  relative viability: 0.936
[3]; first compound 0.03162 µM
  relative viability: 1.01
[3]; first compound 0.1 µM
  relative viability: 0.979
[3]; first compound 0.3162 µM
  relative viability: 0.827
[4]; first compound 0.01 µM
  relative viability: 0.955
[4]; first compound 0.03162 µM
  relative viability: 1.03
[4]; first compound 0.1 µM
  relative viability: 0.993
[4]; first compound 0.3162 µM
  relative viability: 0.992

## NCI-H1703
[1]; first compound 0.01 µM
  relative viability: 0.376
[1]; first compound 0.03162 µM
  relative viability: 0.383
[1]; first compound 0.1 µM
  relative viability: 0.175
[1]; first compound 0.3162 µM
  relative viability: 0.242
[1]; first compound 1 µM
  relative viability: 0.192
[2]; first compound 0.01 µM
  relative viability: 0.143
[2]; first compound 0.03162 µM
  relative viability: 0.131
[2]; first compound 0.1 µM
  relative viability: 0.114
[2]; first compound 0.3162 µM
  relative viability: 0.116
[2]; first compound 1 µM
  relative viability: 0.113
[3]; first compound 0.01 µM
  relative viability: 0.384
[3]; first compound 0.03162 µM
  relative viability: 0.335
[3]; first compound 0.1 µM
  relative viability: 0.319
[3]; first compound 0.3162 µM
  relative viability: 0.307
[4]; first compound 0.01 µM
  relative viability: 0.747
[4]; first compound 0.03162 µM
  relative viability: 1.01
[4]; first compound 0.1 µM
  relative viability: 0.535
[4]; first compound 0.3162 µM
  relative viability: 0.255

## NCI-H1734
[1]; first compound 0.01 µM
  relative viability: 0.617
[1]; first compound 0.03162 µM
  relative viability: 0.676
[1]; first compound 0.1 µM
  relative viability: 0.568
[1]; first compound 0.3162 µM
  relative viability: 0.7
[1]; first compound 1 µM
  relative viability: 0.605
[2]; first compound 0.01 µM
  relative viability: 0.569
[2]; first compound 0.03162 µM
  relative viability: 0.61
[2]; first compound 0.1 µM
  relative viability: 0.567
[2]; first compound 0.3162 µM
  relative viability: 0.756
[2]; first compound 1 µM
  relative viability: 0.659
[3]; first compound 0.01 µM
  relative viability: 0.952
[3]; first compound 0.03162 µM
  relative viability: 0.937
[3]; first compound 0.1 µM
  relative viability: 0.743
[3]; first compound 0.3162 µM
  relative viability: 0.598
[4]; first compound 0.01 µM
  relative viability: 0.685
[4]; first compound 0.03162 µM
  relative viability: 0.73
[4]; first compound 0.1 µM
  relative viability: 0.586
[4]; first compound 0.3162 µM
  relative viability: 0.569

## NCI-H1755
[1]; first compound 0.01 µM
  relative viability: 0.919
[1]; first compound 0.03162 µM
  relative viability: 0.801
[1]; first compound 0.1 µM
  relative viability: 0.845
[1]; first compound 0.3162 µM
  relative viability: 0.898
[1]; first compound 1 µM
  relative viability: 0.848
[2]; first compound 0.01 µM
  relative viability: 0.423
[2]; first compound 0.03162 µM
  relative viability: 0.468
[2]; first compound 0.1 µM
  relative viability: 0.362
[2]; first compound 0.3162 µM
  relative viability: 0.529
[2]; first compound 1 µM
  relative viability: 0.484
[3]; first compound 0.01 µM
  relative viability: 0.971
[3]; first compound 0.03162 µM
  relative viability: 0.863
[3]; first compound 0.1 µM
  relative viability: 0.871
[3]; first compound 0.3162 µM
  relative viability: 1.03
[4]; first compound 0.01 µM
  relative viability: 0.892
[4]; first compound 0.03162 µM
  relative viability: 0.878
[4]; first compound 0.1 µM
  relative viability: 0.793
[4]; first compound 0.3162 µM
  relative viability: 0.92

## NCI-H1915
[1]; first compound 0.01 µM
  relative viability: 0.267
[1]; first compound 0.03162 µM
  relative viability: 0.278
[1]; first compound 0.1 µM
  relative viability: 0.266
[1]; first compound 0.3162 µM
  relative viability: 0.283
[1]; first compound 1 µM
  relative viability: 0.244
[2]; first compound 0.01 µM
  relative viability: 0.745
[2]; first compound 0.03162 µM
  relative viability: 0.74
[2]; first compound 0.1 µM
  relative viability: 0.688
[2]; first compound 0.3162 µM
  relative viability: 0.793
[2]; first compound 1 µM
  relative viability: 0.585
[3]; first compound 0.01 µM
  relative viability: 1.11
[3]; first compound 0.03162 µM
  relative viability: 1.06
[3]; first compound 0.1 µM
  relative viability: 1.08
[3]; first compound 0.3162 µM
  relative viability: 1.07
[4]; first compound 0.01 µM
  relative viability: 0.868
[4]; first compound 0.03162 µM
  relative viability: 0.888
[4]; first compound 0.1 µM
  relative viability: 0.852
[4]; first compound 0.3162 µM
  relative viability: 0.91

## NCI-H1944
[1]; first compound 0.01 µM
  relative viability: 0.404
[1]; first compound 0.03162 µM
  relative viability: 0.387
[1]; first compound 0.1 µM
  relative viability: 0.412
[1]; first compound 0.3162 µM
  relative viability: 0.413
[1]; first compound 1 µM
  relative viability: 0.397
[2]; first compound 0.01 µM
  relative viability: 0.551
[2]; first compound 0.03162 µM
  relative viability: 0.587
[2]; first compound 0.1 µM
  relative viability: 0.534
[2]; first compound 0.3162 µM
  relative viability: 0.605
[2]; first compound 1 µM
  relative viability: 0.497
[3]; first compound 0.01 µM
  relative viability: 0.795
[3]; first compound 0.03162 µM
  relative viability: 0.874
[3]; first compound 0.1 µM
  relative viability: 0.851
[3]; first compound 0.3162 µM
  relative viability: 0.63
[4]; first compound 0.01 µM
  relative viability: 1.01
[4]; first compound 0.03162 µM
  relative viability: 1.01
[4]; first compound 0.1 µM
  relative viability: 1.03
[4]; first compound 0.3162 µM
  relative viability: 0.64

## NCI-H1975
[1]; first compound 0.01 µM
  relative viability: 0.768
[1]; first compound 0.03162 µM
  relative viability: 0.699
[1]; first compound 0.1 µM
  relative viability: 0.73
[1]; first compound 0.3162 µM
  relative viability: 0.726
[1]; first compound 1 µM
  relative viability: 0.731
[2]; first compound 0.01 µM
  relative viability: 0.741
[2]; first compound 0.03162 µM
  relative viability: 0.732
[2]; first compound 0.1 µM
  relative viability: 0.629
[2]; first compound 0.3162 µM
  relative viability: 0.639
[2]; first compound 1 µM
  relative viability: 0.712
[3]; first compound 0.01 µM
  relative viability: 0.904
[3]; first compound 0.03162 µM
  relative viability: 0.974
[3]; first compound 0.1 µM
  relative viability: 0.905
[3]; first compound 0.3162 µM
  relative viability: 0.996
[4]; first compound 0.01 µM
  relative viability: 0.938
[4]; first compound 0.03162 µM
  relative viability: 0.929
[4]; first compound 0.1 µM
  relative viability: 0.924
[4]; first compound 0.3162 µM
  relative viability: 1.05

## NCI-H1993
[1]; first compound 0.01 µM
  relative viability: 1.16
[1]; first compound 0.03162 µM
  relative viability: 1.13
[1]; first compound 0.1 µM
  relative viability: 1.07
[1]; first compound 0.3162 µM
  relative viability: 1.15
[1]; first compound 1 µM
  relative viability: 0.937
[2]; first compound 0.01 µM
  relative viability: 0.843
[2]; first compound 0.03162 µM
  relative viability: 0.802
[2]; first compound 0.1 µM
  relative viability: 0.889
[2]; first compound 0.3162 µM
  relative viability: 0.974
[2]; first compound 1 µM
  relative viability: 0.688
[3]; first compound 0.01 µM
  relative viability: 0.808
[3]; first compound 0.03162 µM
  relative viability: 0.762
[3]; first compound 0.1 µM
  relative viability: 0.766
[3]; first compound 0.3162 µM
  relative viability: 0.545
[4]; first compound 0.01 µM
  relative viability: 0.931
[4]; first compound 0.03162 µM
  relative viability: 0.929
[4]; first compound 0.1 µM
  relative viability: 0.899
[4]; first compound 0.3162 µM
  relative viability: 0.765
